From patent publication US5922891A, “2-substituted 1,8-dihydroxy-9(10H)-anthracenone pharmaceuticals” (priority 1997, dated 1999)

Tests used:
[1] = biological target: T1, 5-LO in bovine PMNL (Bos taurus, UniProt F1MQ78); assay: Inhibition of 5-lipoxygenase (5-HETE and LTB4 biosynthesis) in Ca-ionophore-stimulated bovine PMNL; assay type: cell-based; details: N = 3 or more
T1 construct: The purified PMNLs were suspended at a concentration of; endogenous in cells; host or cells: polymorphonuclear leukocytes isolated from bovine blood
T1 sequence (F1MQ78 1-674): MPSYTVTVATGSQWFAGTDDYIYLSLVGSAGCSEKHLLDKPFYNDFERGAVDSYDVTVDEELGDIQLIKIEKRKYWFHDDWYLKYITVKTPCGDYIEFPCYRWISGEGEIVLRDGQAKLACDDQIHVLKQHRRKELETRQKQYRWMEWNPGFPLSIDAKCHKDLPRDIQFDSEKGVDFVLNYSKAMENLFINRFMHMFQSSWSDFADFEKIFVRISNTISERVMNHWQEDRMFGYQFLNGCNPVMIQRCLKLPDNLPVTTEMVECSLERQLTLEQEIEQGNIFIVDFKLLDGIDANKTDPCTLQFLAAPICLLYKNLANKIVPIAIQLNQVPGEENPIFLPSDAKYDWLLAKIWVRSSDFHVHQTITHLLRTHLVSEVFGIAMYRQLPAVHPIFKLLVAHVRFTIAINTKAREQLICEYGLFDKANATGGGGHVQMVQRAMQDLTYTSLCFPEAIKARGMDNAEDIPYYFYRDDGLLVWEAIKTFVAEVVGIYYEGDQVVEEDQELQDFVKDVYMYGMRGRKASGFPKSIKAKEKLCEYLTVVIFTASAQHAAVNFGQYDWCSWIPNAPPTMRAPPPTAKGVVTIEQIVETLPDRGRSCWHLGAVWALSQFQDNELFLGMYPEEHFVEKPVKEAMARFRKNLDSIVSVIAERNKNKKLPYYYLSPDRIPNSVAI
Experimental: Briefly, PMNLs were prepared from sodium EDTA-anticoagulated bovine blood, essentially as described by Walstra, P. et al., (Biochem. Biophys. Acta, 795:499-503 (1984)). Contaminating platelets were removed by repeated centrifugations at 100 g for 20 minutes. […] Cell counts were conducted with a Sysmex micro cell counter CC-130. Preincubation was performed with 2.4 ml of the suspension and 10 μl of a DMSO stock solution of test compounds at the desired concentrations in phosphate buffered saline (PBS) or vehicle control (DMSO at final concentration of 0.4%) for 15 minutes at 37° C. in a shaking water bath at 50 rpm. […] The incubation mixture was held on ice bath for 20 minutes and then centrifuged at 4000 g for 5 minutes at 0° C. The supernatant was diluted with 5 ml of water and passed through a prewashed (10 ml of methanol and 5 ml of water, sequentially) octadecylsilane reversed phase cartridge (Baker). The eicosanoids were eluted with 3 ml of methanol, diluted with 3 ml of water and subjected to reversed phase HPLC analysis using a 250×4 mm column packed with Nucleosil C18 (7 μm particles; Bischoff, Leonberg, Germany). The isocratic elution conditions of LTB4 were tetrahydrofuran (THF)/methanol/water/acetic acid (25+30+45+0.1), adjusted to pH 5.5 with concentrated NH3, at a flow rate of 0.9 ml/min (Kontron 420 pump), monitored at 280 nm with a Kontron 735 LC UV detector. 5-HETE was monitored at 232 nm using methanol/water/acetic acid (77+23+0.1), pH 5.5 and a flow rate 1.0 ml/min. Data were recorded on a MacLab data acquisition system (WissTech, Germany) and analysis was performed using the application Peaks on an Apple Macintosh Quadra 700 computer. Integrated areas of the peaks were compared to a PGB2 internal standard and to external standards of authentic samples. Molar absorption coefficients of Samuelsson et al., Borgeat, P. and B. Samuelsson, (Proc. Natl. Acad. Sci. USA, 76:2148-2152 (1979)), were used for making calculations. Inhibition was calculated by a comparison of the mean value of test compound (n=3) with control (n=6-8) activity: (1-test compound/control)×100.
See Walstra, P. et al., Biochem Biophys. Acta, 795:499-503 (1984); and Dannhardt et al. J. Pharm. Pharmacol., 44:419-424 (1992). […] (Schroder, J. M., J. Invest. Dermatol., 87:624-629 (1986); Tanzer, et al., Arch. Pharm. (Weinheim), 324:841-846 (1991)).

[2] = Deoxyribose degradation as a measure of hydroxyl radical formation; assay type: biochemical; details: 75 μM test compound; controls < 0.1

Structure (SMILES) | IC50 [1] | DD (deoxyribose degradation, malondialdehyde released) [2]
COC(=O)CCCCc1ccc2c(c1O)C(=O)c1c(O)cccc1C2 [IVB, Methyl 5-(9,10-Dihydro-1,8-dihydroxy-9-oxo-2-anthracene)pentanoate] | > 30 µM | 0.62 ± 0.03 μmol of MDA/mmol
COC(=O)CCCCCc1ccc2c(c1O)C(=O)c1c(O)cccc1C2 [VB, Methyl 6-(9,10-Dihydro-1,8-dihydroxy-9-oxo-2-anthracene) hexaonate] | > 30 µM | 0.13 ± 0.02 μmol of MDA/mmol
CC(C(=O)N(C)O)c1ccc2c(c1O)C(=O)c1c(O)cccc1C2 (centres unmarked) [VIID, N-Hydroxy-N-methyl-2-(9,10-dihydro-1,8-dihydroxy-9-oxo-2-anthracene)propionamide] | 4 µM | 1.57 ± 0.16 μmol of MDA/mmol
COC(=O)C(c1ccc2c(c1O)C(=O)c1c(O)cccc1C2)C(C)C (centres unmarked) [VIIIB, Methyl 2-(9,10-Dihydro-1,8-dihydroxy-9-oxo-2-anthracene)-3-methylbutanoate] | > 30 µM | 0.54 ± 0.01 μmol of MDA/mmol
